From patent publication US10087216B2 (priority 2014, dated 2018)

Test system: potassium ion channel current of the DRG neurons
Test: cells
Assay type: cell-based, SD rats

## Nc1ccncc1 [4AP, 4-aminopyridine]
5 mM
  Current recorded after loading: 0.9766 nA
Rattus norvegicus, DRG neuron, read-out: Current inhibition rate
  inhibition at 5000 µM: 33.8%
